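Growth conditions: 96-well plates. Treatment: test compound, 48 hours, 5 concentrations. Analysis: linear interpolation between bracketing concentrations; unreached endpoints set to highest concentration. At the GI50, growth is halved.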 Activity calls are given as the source filed them. Cut-off read from the data, not from the text of the source: active = GI50 up to about 1.1 µM and inactive = higher.
What was measured:
Experiment in all cases: NCI anticancer screen, dose series, 48 h
[1] = tested on: DLD-1
[2] = tested on: DMS-114
[3] = tested on: HOP-18
[4] = tested on: KM-20L2
[5] = tested on: LXFL 529
[6] = tested on: M19-MEL
[7] = tested on: RXF 631
[8] = tested on: SNB-78
[9] = tested on: XF498

Measured: GI50

O=C(/C=C/c1ccccc1)/C=C/c1ccccc1
inactive: [1] 15.1 µM | [2] 21.6 µM | [3] 28.6 µM | [4] 22.1 µM | [5] 21.2 µM | [6] 20.6 µM | [7] 32.8 µM | [8] 92.9 µM

O=C1C(=O)C(Br)(Br)C(Br)=C1Br
inactive: [1] 18.8 µM | [2] 18.8 µM | [3] 15.6 µM | [4] 15 µM | [5] 15.2 µM | [6] 19.1 µM | [7] 37.9 µM

C=C(CCCCC)CN1CCCC1[C@@](C)(O)CC(=O)OCC (stereo not given in full)
inactive: [1] > 100 µM | [2] > 100 µM | [3] > 100 µM | [4] > 100 µM | [5] > 100 µM | [6] > 100 µM | [8] > 100 µM | [9] > 76.6 µM

COC1OC(COS(=O)(=O)c2ccc(C)cc2)C(O)C(OS(=O)(=O)c2ccc(C)cc2)C1OS(=O)(=O)c1ccc(C)cc1 (stereo not given)
inactive: [1] > 100 µM | [2] > 100 µM | [3] > 100 µM | [4] > 100 µM | [5] > 100 µM | [6] > 100 µM | [7] > 100 µM | [8] > 100 µM

CC1(C(=O)NCCN(CCNC(=O)C2(C)CC3(C)CC(C)(C2)C(=O)NC3=O)CCNC(=O)C2(C)CC3(C)CC(C)(C2)C(=O)NC3=O)CC2(C)CC(C)(C1)C(=O)NC2=O (stereo not given)
inactive: [2] > 100 µM | [3] 94.4 µM | [4] > 100 µM | [5] > 100 µM | [6] > 100 µM | [8] > 100 µM | [9] > 100 µM

CCOC(=O)NC(=O)c1cn(CCOCCOC(=O)NCCCCCCNC(=O)OCCOCCn2cc(C(=O)NC(=O)OCC)c(=O)[nH]c2=O)c(=O)[nH]c1=O
inactive: [1] > 100 µM | [2] > 100 µM | [3] > 100 µM | [4] > 100 µM | [5] > 100 µM | [6] > 100 µM | [7] > 100 µM | [8] > 100 µM

N#CNc1nc(N)c(-c2ccc(Cl)cc2)c(C(=O)Nc2nccs2)n1
inactive: [1] > 100 µM | [2] > 100 µM | [3] > 100 µM | [4] > 100 µM | [5] > 100 µM | [6] > 100 µM | [8] > 100 µM | [9] > 100 µM

CCCCNC(=O)CCN(C(=O)O)S(=O)(=O)c1ccc(NC(=O)c2ccccc2)cc1
inactive: [1] > 100 µM | [2] > 100 µM | [3] > 100 µM | [4] > 100 µM | [5] > 100 µM | [6] 79.4 µM | [8] > 100 µM | [9] > 100 µM

C1C[N+]23CCC[N+]2(C1)CCC3 (stereo not given)
inactive: [1] > 100 µM | [2] > 100 µM | [3] > 100 µM | [4] > 100 µM | [5] > 100 µM | [6] > 100 µM | [7] > 100 µM | [8] > 100 µM

— ChEMBL document CHEMBL1201862, “PubChem BioAssay data set” (2004)
